# Experimental data as given in patent publication US11479802B2, “Assays for screening activity of modulators of members of the hydroxy steroid (17-beta) dehydrogenase (HSD17B) family” (Regeneron Pharmaceuticals, Inc., priority 2017, dated 2022).
# Target: T1, human HSD17B13 (Homo sapiens, UniProt Q7Z5P4)
# T1 sequence (Q7Z5P4 20-300): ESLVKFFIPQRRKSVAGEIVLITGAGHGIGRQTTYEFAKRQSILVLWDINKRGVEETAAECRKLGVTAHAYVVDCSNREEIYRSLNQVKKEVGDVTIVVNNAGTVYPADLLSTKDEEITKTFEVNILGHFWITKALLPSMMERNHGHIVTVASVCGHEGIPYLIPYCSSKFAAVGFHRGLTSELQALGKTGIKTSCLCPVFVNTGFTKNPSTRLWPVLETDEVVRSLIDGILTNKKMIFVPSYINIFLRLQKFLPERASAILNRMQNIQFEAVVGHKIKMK
# Assay: Substrate screening of steroid and bioactive lipid libraries against purified recombinant HSD17B13 (NADH-linked luciferase assay)
# Format: biochemical
# Details: for HSD17B13 Enzymatic Activity Relative Light Units: 500 μM NAD+, 100 ng enzyme, 3 hours at 23° C.; for HSD17B13 Enzymatic Activity Percent Estradiol Control: normalized to 50 μM estradiol after subtraction of 5% DMSO
# Outline: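 Recombinant human HSD17B13 (100 ng) incubated 3 h at 23° C in 0.2 M Tris-HCl pH 7.5 with 500 μM NAD+ and 5 μM bioactive lipid or 50 μM steroid (5% DMSO). NADH measured by luciferase luminescence after 1 h; values as percent of 50 μM estradiol control after 5% DMSO subtraction.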
# [1] = Bioactive Lipid Library, 5 μM bioactive lipid (Estradiol Control 50 μM)
# [2] = Bioactive Lipid Library, 5 μM bioactive lipid
SMILES,HSD17B13 Enzymatic Activity Relative Light Units [1],HSD17B13 Enzymatic Activity Percent Estradiol Control [2],"HSD17B13 Enzymatic Activity Relative Light Units (Steroid Library, 50 μM steroid)","HSD17B13 Enzymatic Activity Percent Estradiol Control (Steroid Library, 50 μM steroid)"
CCCCC[C@@H](/C=C/C=C\C/C=C\CCCCC(=O)O)OO [13(S)-HpOTrE(γ)],268840 RLU,−1.34%,–,–
CC/C=C\C[C@@H](/C=C/C=C\CCCCCCCC(=O)O)OO [13(S)-HpOTrE],35320 RLU,−18.70%,–,–
"O=C(O)CCCC=C1CC2CC(O)C(C#CC(O)C3CCCCC3)C2C1 (stereo not shown) [13,14-dehydro-15-cyclohexyl Carbaprostacyclin]",356360 RLU,5.79%,–,–
"C[C@@H](O)CCC[C@H](O)CC[C@H]1[C@H](O)CC(=O)[C@@H]1CCCCCCC(=O)O [13,14-dihydro-19(R)-hydroxy Prostaglandin E1]",337040 RLU,4.26%,–,–
CC/C=C\C[C@H]1C(=O)C=C[C@@H]1CCCCCCCC(=O)O [13-epi-12-oxo Phytodienoic Acid],320640 RLU,2.97%,–,–
CCCCC[C@H]1O[C@H]1C/C=C\C/C=C\C/C=C\CCCC(=O)NCCO [14(15)-EET Ethanolamide],428760 RLU,7.83%,–,–
"C[C@@H](O)CCC[C@@H](O)/C=C/[C@H]1[C@H](O)CC(=O)[C@@H]1CCCCCCC(=O)O [15(R),19(R)-hydroxy Prostaglandin E1]",333200 RLU,3.96%,–,–
"C[C@@H](O)CCC[C@@H](O)/C=C/[C@H]1[C@H](O)CC(=O)[C@@H]1C/C=C\CCCC(=O)O [15(R),19(R)-hydroxy Prostaglandin E2]",346000 RLU,4.97%,–,–
"C[C@@H](O)CCC[C@@H](O)/C=C/[C@@H]1[C@@H](C/C=C\CCCC(=O)O)[C@@H](O)C[C@H]1O [15(R),19(R)-hydroxy Prostaglandin F2α]",382720 RLU,7.88%,–,–
CCCCC[C@@H](O)/C=C/C=C\CCCCCCCCCC(=O)O [15(R)-HEDE],1862960 RLU,117.20%,–,–
CCCCC[C@@H](O)/C=C/C=C\C/C=C\C/C=C\CCCC(=O)O [15(R)-HETE],701120 RLU,61.00%,–,–
CC(C)OC(=O)CCC/C=C\C[C@@H]1[C@@H](/C=C/[C@H](O)COc2cccc(C(F)(F)F)c2)[C@H](O)C[C@@H]1O [15(S)-Fluprostenol isopropyl ester],410960 RLU,10.11%,–,–
CCCCC[C@H](O)/C=C/C=C\CCCCCCCCCC(=O)O [15(S)-HEDE],1060680 RLU,57.54%,–,–
CC/C=C\C[C@H](O)/C=C/C=C\C/C=C\C/C=C\CCCC(=O)O [15(S)-HEPE],505240 RLU,16.24%,–,–
CCCCC[C@H](O)/C=C/C=C\C/C=C\C/C=C\CCCC(=O)NCCO [15(S)-HETE Ethanolamide],535680 RLU,19.97%,–,–
CCCCC[C@H](O)/C=C/C=C\C/C=C\C/C=C\CCCC(=O)O [15(S)-HETE],1107240 RLU,24.49%,–,–
CCCCC[C@H](O)/C=C/C=C\C/C=C\CCCCCCC(=O)O [15(S)-HETrE],638320 RLU,26.14%,–,–
CCCCC[C@@H](/C=C/C=C\CCCCCCCCCC(=O)O)OO [15(S)-HpEDE],232720 RLU,−4.02%,–,–
CC/C=C\C[C@@H](/C=C/C=C\C/C=C\C/C=C\CCCC(=O)O)OO [15(S)-HpEPE],316200 RLU,2.18%,–,–
CCCCCC(=O)/C=C/C=C\CCCCCCCCCC(=O)O [15-OxoEDE],261480 RLU,−1.88%,–,–
CCCCCC(=O)/C=C/C=C\C/C=C\C/C=C\CCCC(=O)O [15-OxoETE],616120 RLU,−8.98%,–,–

SMILES,HSD17B13 Enzymatic Activity Relative Light Units [1],HSD17B13 Enzymatic Activity Percent Estradiol Control [2],"HSD17B13 Enzymatic Activity Relative Light Units (Steroid Library, 50 μM steroid)","HSD17B13 Enzymatic Activity Percent Estradiol Control (Steroid Library, 50 μM steroid)"
"CCCCC(C)(C)[C@H](O)/C=C/[C@H]1[C@H](O)CC(=O)[C@@H]1C/C=C\CCCC(=O)Oc1ccc(NC(=O)c2ccc(NC(C)=O)cc2)cc1 [16,16-dimethyl Prostaglandin E2 p-(p-acetamidobenzamido) phenyl ester]",322280 RLU,3.10%,–,–
CC1(C)[C@@H](O)CC[C@]2(C)[C@H]3C(=O)C=C4[C@@H]5C[C@@](C)(C(=O)O)CC[C@]5(C)CC[C@@]4(C)[C@]3(C)CC[C@@H]12 [18beta-Glycyrrhetinic acid],–,–,32720 RLU,−2.23%
C[C@@H](O)CCC[C@H](O)/C=C/[C@H]1C=CC(=O)[C@@H]1C/C=C\CCCC(=O)O [19(R)-hydroxy Prostaglandin A2],323320 RLU,3.18%,–,–
C[C@@H](O)CCC[C@H](O)/C=C/[C@H]1[C@H](O)CC(=O)[C@@H]1CCCCCCC(=O)O [19(R)-hydroxy Prostaglandin E1],333160 RLU,3.96%,–,–
C[C@@H](O)CCC[C@H](O)/C=C/[C@H]1[C@H](O)CC(=O)[C@@H]1C/C=C\CCCC(=O)O [19(R)-hydroxy Prostaglandin E2],347280 RLU,5.07%,–,–
C[C@@H](O)CCC[C@H](O)/C=C/[C@@H]1[C@@H](CCCCCCC(=O)O)[C@@H](O)C[C@H]1O [19(R)-hydroxy Prostaglandin F1α],207560 RLU,−5.97%,–,–
C[C@@H](O)CCC[C@H](O)/C=C/[C@@H]1[C@@H](C/C=C\CCCC(=O)O)[C@@H](O)C[C@H]1O [19(R)-hydroxy Prostaglandin F2α],371400 RLU,6.98%,–,–
O=C(CCC/C=C\C/C=C\C/C=C\C/C=C\CCCCCO)NCCO [20-HETE Ethanolamide],879760 RLU,41.89%,–,–
O=C(O)CCC/C=C\C/C=C\C/C=C\C/C=C\CCCCCO [20-HETE],332640 RLU,0.57%,–,–
O=C(O)CCC/C=C\C/C=C\C/C=C\C/C=C\CCCCCC(=O)O [20-carboxy Arachidonic Acid],293760 RLU,−2.36%,–,–
O=C(O)CCCC/C=C\C[C@@H](O)/C=C/C=C/C=C\[C@@H](O)CCCC(=O)O [20-carboxy Leukotriene B4],400440 RLU,9.28%,–,–
O=C(O)CCC[C@H](O)\C=C/C=C/C=C/[C@H](O)C/C=C\CCCCCO [20-hydroxy Leukotriene B4],654120 RLU,29.33%,–,–
O=C(O)CCC/C=C\C[C@H]1C(=O)C[C@@H](O)[C@@H]1/C=C/[C@@H](O)CCCCCO [20-hydroxy Prostaglandin E2],348240 RLU,5.15%,–,–
O=C(O)CCC/C=C\C[C@@H]1[C@@H](/C=C/[C@@H](O)CCCCCO)[C@H](O)C[C@@H]1O [20-hydroxy Prostaglandin F2α],378680 RLU,7.56%,–,–
"C[C@]12C[C@H]3S[C@H]3C[C@@H]1CC[C@@H]1[C@@H]2CC[C@@]2(C)[C@H]1CC[C@@]2(C)O [(2a,3a,52,17b)-Androstan-17ol,2,3-epithio-17-methyl]",–,–,100160 RLU,−1.06%
C[C@]12CCC(=O)C=C1CC[C@@H]1[C@@H]2[C@@H](O)C[C@]2(C=O)[C@@H](C(=O)CO)CC[C@@H]12 [Aldosterone],–,–,217400 RLU,0.99%
C[C@]12CCC(=O)C[C@@H]1CC[C@@H]1[C@@H]2CC[C@]2(C)[C@@H](OC(=O)c3ccccc3)CC[C@@H]12 [Androstanolone 17-benzoate],–,–,217200 RLU,0.99%
C[C@]12CCC(=O)C=C1CC[C@@H]1[C@@H]2CC[C@]2(C)C(=O)CC[C@@H]12 [Androstenedione],–,–,172400 RLU,0.21%
O=c1cc(-c2ccc(O)cc2)oc2cc(O)cc(O)c12 [Apigenin],–,–,24440 RLU,−2.38%
CC[C@H](CC[C@@H](C)[C@H]1CC[C@H]2[C@@H]3CC=C4C[C@@H](O)CC[C@]4(C)[C@H]3CC[C@]12C)C(C)C [Beta-sitosterol],–,–,168880 RLU,0.14%
